Measured values as given in paper PMC3086806, “Mining a Cathepsin Inhibitor Library for New Antiparasitic Drug Leads” (PLoS Neglected Tropical Diseases, 2011).

Assays:
cruzain = biological target: T1, cruzain (Trypanosoma cruzi, UniProt P25779); assay: Cruzain protease inhibition assay (Z-Phe-Arg-AMC); assay type: biochemical
T1 construct: made in house
Procedure: Recombinant cruzain, rhodesain, TbCatB, falcipain-2 and falcipain-3 were expressed as described previously, [39], [40], [41], [42]. Inhibitor stock solutions were prepared in DMSO and screened at 0.1 µM for cruzain and rhodesain, 1 µM for TbCatB and 50 nM for falcipain-3 (0.5% DMSO in assay). […] Protease inhibition assays for cruzain and rhodesain were carried out in 96 well plate format as described previously. Cruzain (4 nM), rhodesain (4 nM) or TbCatB (258 nM) was incubated with test compound in 100 mM sodium acetate, pH 5.5, containing 5 mM DTT and 0.01% Triton X-100 (buffer A), for 5 min at room temperature (the higher concentration of TbCatB was required due to its lower intrinsic activity against the fluorogenic substrate). Then buffer A containing Z-Phe-Arg-AMC (Bachem) was added to enzyme-compound mixture to give 10 µM substrate in a final assay volume of 200 µL. The rate of free AMC release was measured at excitation and emission wavelengths of 355 and 460 nm, respectively, with a microtiter plate spectrofluorimeter (SpectraMax M5, Molecular Devices) for 3 min. Percentage inhibition of test compound was calculated relative to the DMSO control (0% inhibition control). IC50 values were determined with Prism 4 software (GraphPad, San Diego, CA) using sigmoidal dose-response variable slope model.

[1] = test system: W2-strain P. falciparum parasites; assay: P. falciparum growth inhibition assay; assay type: cell-based, Plasmodium falciparum; conditions: Plasmodium falciparum; cultured W2 strain, 48 hours; read-out: GI50 P. falc. W2
Procedure: The growth inhibition assay for P. falciparum was conducted as described previously. W2-strain P. falciparum parasites (1% parasitemia, 2% hematocrit) were cultured at 37°C in human red blood cells under the atmosphere of 3% O2, 5% CO2 balance N2 in 0.2 mL of per well in medium RPMI-1640 supplemented with 10% human serum in duplicate 96-well flat bottom culture plates in the presence of inhibitors. Tested compounds were serially diluted 1∶3 in the range 10,000 – 4.6 nM, with maximum DMSO concentration of 0.1%. Following 48 hours of incubation, the medium was removed and the cells were fixed in 2% formaldehyde in PBS. Parasite growth was evaluated by flow cytometry on a FACsort (Becton Dickinson) equipped with AMS-1 loader (Cytek Development) after staining with 1 nM DNA dye YOYO-1(Molecular Probes) in 100 mM NH4Cl, 0.8% NaCl. Parasitemias were determined from dot plots (forward scatter vs. fluorescence) using […] software (Becton Dickinson). IC50 values for growth inhibition were determined from plots of percentage control parasitemia over inhibitor concentration using GraphPad Prism software.

[2] = test system: T. brucei brucei clone 427-221a bloodstream forms; assay: T. brucei brucei growth inhibition assay; assay type: cell-based; conditions: Trypanosoma brucei; 40 hours
Procedure: The growth inhibition assay for T. brucei brucei was conducted as described previously. Bloodstream forms of the monomorphic T. brucei brucei clone 427-221a were grown in complete HMI-9 medium containing 10% FBS, 10% Serum Plus medium (Sigma Inc. St. Louis Mo. USA), 50 U/mL penicillin and 50 µg/mL streptomycin (Invitrogen) at 37°C under a humidified atmosphere and 5% CO2. […] 5 µL of each dilution was added to 95 µL of diluted parasites (1×10^4 cells per well) in sterile Greiner 96-well flat white opaque culture plates such that the final DMSO concentration was 0.5%. The 0% inhibition control wells contained 0.5% DMSO while 100% inhibition control wells contained 50 µM thimerosal (Sigma). After compound addition, plates were incubated for 40 hours at 37°C. At the end of the incubation period, 50 µL of CellTiter-Glo™ reagent (Promega Inc., Madison, WI, USA) was added to each well and plates were placed on an orbital shaker at room temperature for 2 min to induce lysis. After an additional 10 min incubation without shaking to stabilize the signal, the ATP-bioluminescence of each well was determined using an Analyst HT plate reader (Molecular Devices, Sunnyvale, CA, USA). Raw values were converted to log10 and percentage inhibition calculated relative to the controls. IC50 curve fittings were performed with Prism 4 software as above.

[3] = test system: intracellular T. cruzi (CA-I/72) in BESM cells; assay: T. cruzi amastigote growth inhibition assay; assay type: cell-based; conditions: Trypanosoma cruzi; infected BESM cells, 72 hours
Procedure: The growth inhibition assay for the intracellular T. cruzi was conducted in 96-well plate format as described previously. Briefly, bovine embryo skeletal muscle (BESM) cells (2×10^3/well), seeded overnight, were infected with CA-I/72 T. cruzi trypomastigotes (2×10^3/well). Sixteen hours post-infection, test compounds (serial dilution concentrations starting from 20 µM) were added and assay plates were incubated for an additional 72 hours at 37°C with 5% CO2. Cells were then washed once in PBS, fixed with 4% paraformaldehyde and stained with DNA fluorescent dye DAPI (4′ 6-diamidino-2-phenylindole). The assay plates were then imaged in the IN Cell Analyzer 2000 (GE Healthcare) with the excitation and emission filters set of 350 nm and 460 nm, respectively, to detect DAPI signals. The feature extraction module in IN Cell Developer Toolbox 1.7 software was used to count host nuclei and parasite kinetoplasts by size difference.

[4] = Jurkat cell cytotoxicity assay; assay type: cell-based; conditions: human, Jurkat cells (clone E6-1), read-out: Cytotoxicity (% inhibition at 10 µM) Jurkat cells
Procedure: Jurkat cells (clone E6-1) were grown in complete RPMI-1640 medium containing 10% FBS, 50 U/mL penicillin and 50 µg/mL streptomycin (Invitrogen) at 37°C under a humidified atmosphere and 5% CO2. For cytotoxicity testing, cells were diluted to 1×10^5 per ml in complete RPMI-1640 medium. Test compound stocks were prepared in 100% DMSO and screened at 10 µM against cells (1×10^4 cells per well) in sterile Greiner 96-well flat white opaque culture plates (0.5% final DMSO concentration). The 0% inhibition control wells contained 0.5% DMSO while 100% inhibition control wells contained 40 µM staurosporine. After compound addition, plates were incubated for 40 hr at 37°C. At the end of the incubation period, 50 µL of CellTiter-Glo™ reagent (Promega Inc., Madison, WI, USA) was added to each well and plates were placed on an orbital shaker at room temperature for 2 min to induce lysis. After a further 10 min incubation without shaking to stabilize the signal, the ATP-bioluminescence of each well was determined using an Analyst HT plate reader (Molecular Devices, Sunnyvale, CA, USA). Calculations of percentage inhibition and IC50 were performed similar to those in the T. brucei brucei assay.

human cathepsin L = biological target: human cathepsin L; parameters: method as in data provided by Celera Genomics; conditions: historical data; ref data provided by Celera Genomics; read-out: Ki catL; cited from earlier work
human cathepsin B = biological target: human cathepsin B; parameters: method as in data provided by Celera Genomics; conditions: historical data; ref data provided by Celera Genomics; read-out: Ki catB; cited from earlier work

T1 sequence (P25779 123-467): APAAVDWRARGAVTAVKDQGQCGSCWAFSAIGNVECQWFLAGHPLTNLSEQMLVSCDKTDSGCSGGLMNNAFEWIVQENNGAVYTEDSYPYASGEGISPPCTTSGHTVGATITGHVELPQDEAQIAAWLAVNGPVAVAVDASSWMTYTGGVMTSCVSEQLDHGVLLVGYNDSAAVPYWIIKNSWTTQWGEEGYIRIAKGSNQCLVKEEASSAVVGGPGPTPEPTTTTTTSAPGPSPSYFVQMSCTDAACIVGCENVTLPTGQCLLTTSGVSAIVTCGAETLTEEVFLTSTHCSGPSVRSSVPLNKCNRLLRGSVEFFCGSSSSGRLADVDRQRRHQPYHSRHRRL

Row | Structure (SMILES) | IC50 (cruzain) | GI50 [1] | GI50 [2] | GI50 [3] | cytotoxicity at 40 h, 10 µM [4] | Ki (human cathepsin L) | Ki (human cathepsin B)
1 | CCCCC(NC(=O)C(CC(C)C)NC(=O)N1CCOCC1)C(=O)c1nc2ccccc2o1 (centres unmarked) [Compound 19a] | 0.001 µM | 1.2 µM | > 25 µM | 20 µM | < 5% | 0.026 µM | 0.125 µM
2 | CCCCC(NC(=O)C(Cc1ccccc1)NC(=O)N1CCOCC1)C(=O)c1nc2ccccc2o1 (centres unmarked) [Compound 19b] | 0.004 µM | 2.9 µM | > 25 µM | 10.9 µM | < 5% | 0.18 µM | 0.042 µM
